Assay results as given in PMC5130197 (PLoS ONE, 2016).
Several values for one entry are separate records, joined by “and”; a condition that tells them apart may be missing. Equal entries are not always repeated. Entries after “also recorded” stand apart in the source; their conditions may differ. Structures can show the parent of a compound that is named as a salt. Where two headings read alike, the source gives them in different places.

Tests used:
[1] = system: EBOV/Kik (Ebola virus Kikwit variant); format: cell-based
[2] = system: EBOV/Mak (Ebola virus Makona variant); format: cell-based
EBOV-eGFP [3] = format: cell-based, Ebola virus
[4] = system: Vero E6, Hep G2, HeLa, Huh 7 cells
[5] = system: EBOV/Kik (Ebola virus Kikwit variant); settings: cited from earlier work
[6] = both, Hartley, guinea pig, in vivo, po, 60 mg/kg
EBOV-eGFP [7] = settings: cited from earlier work
Ebola virus disease = settings: human, in vivo; cited from earlier work
in vivo = settings: Hartley, guinea pig, po, 60 mg/kg; for AUC(0-inf): AUCinf (h·ng/ml); for AUC(0-t): AUClast (h·ng/ml); for Cmax: Cmax (ng/ml)

## Nc1ccn([C@@H]2CS[C@H](CO)O2)c(=O)n1 [Lamivudine]
[1]
  antiviral activity against EBOV/Kik: no detectable antiviral activity
[1]; read-out: IC50
  IC50: > 320 µM
[2]
  anti-EBOV activity: No significant anti-EBOV activity
  antiviral activity against EBOV/Mak: did not show antiviral activity; also recorded: did not demonstrate any antiviral activity
  antiviral activity against EBOV/Mak infection in MDMs: did not demonstrate any antiviral activity
  antiviral activity with extended drug pre-treatment: did not improve
[2]; 320 µM
  viral inhibition (maximum achieved): ≤ 30%
[2]; read-out: IC50
  IC50: > 320 µM
EBOV-eGFP [3]
  anti-EBOV activity against EBOV-eGFP: None of these compounds showed any anti-EBOV activity
[4]
  cytotoxicity: minimal cytotoxicity
[5]
  IC50: > 320 µM
[6]
  AUCinf higher in male compared with female guinea pigs: about 34%
  time of small second peak of plasma concentration: 4 to 6 h
EBOV-eGFP [7]
  IC25: 43.13 µM
  inhibition of viral replication (maximum): ≤ 45%
Ebola virus disease
  patients successfully treated: 13 out of 15
In vivo; both, time to reach peak plasma concentrations
  Tmax: ≤ 1 h
In vivo; female
  AUC(0-inf): 12600 ng·h/mL
  AUC(0-t): 14600 ng·h/mL
  Cmax: 4110 ng/mL
In vivo; female, Tmax (hr)
  Tmax: 1 h
In vivo; male
  AUC(0-inf): 16800 ng·h/mL
  AUC(0-t): 15500 ng·h/mL
  Cmax: 4560 ng/mL
In vivo; male, Tmax (hr)
  Tmax: 1 h

## CN(C)CCOc1ccc(/C(=C(/CCCl)c2ccccc2)c2ccccc2)cc1 [Toremifene, Toremifene citrate]
[1]; read-out: IC50s (range over cell lines)
  IC50: 2.2 to 9.9 µM
[2]
  antiviral activity against EBOV/Mak: strong antiviral activity
[2]; read-out: IC50
  IC50: 1.2 ± 0.1 µM
[2]; read-out: IC50s (range) in MDMs
  IC50: 2.1 to 4.5 µM
Human MDMs
  doses at which cytotoxicity increased: ≥ 10 µM
[5]
  IC50: ~25 µM and 18.3 µM

## Cc1cn([C@H]2C[C@H](N=[N+]=[N-])[C@@H](CO)O2)c(=O)[nH]c1=O [Zidovudine]
[1]
  antiviral activity against EBOV/Kik: no detectable antiviral activity
[1]; read-out: IC50
  IC50: > 320 µM
[2]
  antiviral activity against EBOV/Mak: did not show antiviral activity
  antiviral activity against EBOV/Mak infection in MDMs: did not demonstrate any antiviral activity
EBOV-eGFP [3]
  anti-EBOV activity against EBOV-eGFP: None of these compounds showed any anti-EBOV activity
[4]
  cytotoxicity: minimal cytotoxicity
[5]
  IC50: > 320 µM
